Patent US10981926B2 (Janssen Pharmaceutica NV, priority 2016, dated 2021)

What was measured:
Format in all cases: cell-based
[1] = molecular target: T1, F876L mutant Androgen Receptor (AR-F876L) (Homo sapiens (Human), UniProt P10275, F877L); test: LNCaP-AR-F876L AG reporter assay (agonist mode); conditions: agonist mode; for Emax: maximum % stimulation over tested concentration range, read-out: LNCaP-AR-F876L AG MAX % Stim; for EC50: pEC50 = −Log10(EC50 in Molar), read-out: LNCaP-AR-F876L AG pEC50 (converted)
[2] = molecular target: T2, wild-type Androgen Receptor (AR-wt) (Homo sapiens (Human), UniProt P10275); test: LNCaP-AR-wt ANT reporter assay (antagonist mode); conditions: antagonist mode; for Emax: maximum % inhibition of R1881 control response over tested concentration range, read-out: LNCaP-AR-wt ANT MAX % Inh; for IC50: pIC50 = −Log10(IC50 in Molar), read-out: LNCaP-AR-wt ANT pIC50 (converted)
[3] = molecular target: T2, wild-type Androgen Receptor (AR-wt); test: LNCaP-AR-wt AG reporter assay (agonist mode); conditions: agonist mode; for Emax: maximum % stimulation over tested concentration range, read-out: LNCaP-AR-wt AG MAX % Stim; for EC50: pEC50 = −Log10(EC50 in Molar), read-out: LNCaP-AR-wt AG pEC50 (converted)
[4] = molecular target: T1, F876L mutant Androgen Receptor (AR-F876L); test: LNCaP-AR-F876L ANT reporter assay (antagonist mode); conditions: antagonist mode; for Emax: maximum % inhibition of R1881 control response over tested concentration range, read-out: LNCaP-AR-F876L ANT MAX % Inh; for IC50: pIC50 = −Log10(IC50 in Molar), read-out: LNCaP-AR-F876L ANT pIC50 (converted)

T1 sequence (P10275 whole entry F877L): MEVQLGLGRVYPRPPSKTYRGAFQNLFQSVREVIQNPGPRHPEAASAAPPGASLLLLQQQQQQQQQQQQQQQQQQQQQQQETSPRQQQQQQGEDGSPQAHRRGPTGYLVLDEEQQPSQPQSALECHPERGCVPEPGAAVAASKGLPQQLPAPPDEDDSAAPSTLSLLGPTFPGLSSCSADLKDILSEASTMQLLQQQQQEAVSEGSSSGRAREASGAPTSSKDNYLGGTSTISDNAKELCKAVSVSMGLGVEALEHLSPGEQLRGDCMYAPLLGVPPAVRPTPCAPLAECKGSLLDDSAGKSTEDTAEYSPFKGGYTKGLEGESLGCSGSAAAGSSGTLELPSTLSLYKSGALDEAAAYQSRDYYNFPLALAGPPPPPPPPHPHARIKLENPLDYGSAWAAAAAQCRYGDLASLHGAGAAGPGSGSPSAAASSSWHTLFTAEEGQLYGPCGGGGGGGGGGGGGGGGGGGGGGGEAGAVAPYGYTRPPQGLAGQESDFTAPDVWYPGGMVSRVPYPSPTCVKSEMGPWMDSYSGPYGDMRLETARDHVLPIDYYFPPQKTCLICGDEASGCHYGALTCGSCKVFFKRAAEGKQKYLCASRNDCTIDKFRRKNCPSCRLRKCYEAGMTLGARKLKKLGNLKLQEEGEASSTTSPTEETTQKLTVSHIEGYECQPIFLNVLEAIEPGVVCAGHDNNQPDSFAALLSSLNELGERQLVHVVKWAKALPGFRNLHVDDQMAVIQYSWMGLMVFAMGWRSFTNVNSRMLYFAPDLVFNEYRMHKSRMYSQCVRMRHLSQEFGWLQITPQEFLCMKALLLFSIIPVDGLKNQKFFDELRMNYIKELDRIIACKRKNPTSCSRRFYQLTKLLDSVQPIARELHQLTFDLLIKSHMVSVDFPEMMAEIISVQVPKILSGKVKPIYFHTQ
T2 sequence (P10275 whole entry): as the sequence (P10275 whole entry F877L) above, with L877F counted along it

Emax [1] | EC50 [1] | Emax [2] | IC50 [2] | Emax [3] | EC50 [3] | Emax [4] | IC50 [4] | Compound
0.2% | > 15.1 µM | 103% | 457 nM | 0.6% | > 15.1 µM | 101% | 269 nM | COc1cc(N2C(=O)C3(CCC3)N(c3ccc(CC4CCNCC4)cc3)C2=S)cnc1C#N [Cpd 236, 3-Methoxy-5-[8-oxo-5-(4-piperidin-4-ylmethyl-phenyl)-6-thioxo-5,7-diaza-spiro[3.4]oct-7-yl]-pyridine-2-carbonitrile]
0.1% | > 15.1 µM | 104% | 832 nM | 0.4% | > 15.1 µM | 100% | 468 nM | CN1CCC(Cc2ccc(N3C(=S)N(c4cnc(C#N)c(C(F)(F)F)c4)C(=O)C34CCC4)cc2)CC1 [Cpd 237, 5-[8-[4-[(1-methyl-4-piperidyl)methyl]phenyl]-5-oxo-7-thioxo-6,8-diazaspiro[3.4]octan-6-yl]-3-(trifluoromethyl)pyridine-2-carbonitrile]
0.1% | > 15.1 µM | 101% | 1410 nM | 0% | > 15.1 µM | 101% | 813 nM | Cc1cc(N2C(=O)C3(CCC3)N(c3ccc(CC4CCN(C)CC4)cc3)C2=S)cnc1C#N [Cpd 238, 3-methyl-5-[8-[4-[(1-methyl-4-piperidyl)methyl]phenyl]-5-oxo-7-thioxo-6,8-diazaspiro[3.4]octan-6-yl]pyridine-2-carbonitrile]
0.2% | > 15.1 µM | 103% | 603 nM | -0.1% | > 15.1 µM | 102% | 347 nM | COc1cc(N2C(=O)C3(CCC3)N(c3ccc(CC4CCN(C)CC4)cc3)C2=S)cnc1C#N [Cpd 239, 3-methoxy-5-[8-[4-[(1-methyl-4-piperidyl)methyl]phenyl]-5-oxo-7-thioxo-6,8-diazaspiro[3.4]octan-6-yl]pyridine-2-carbonitrile]
-0.5% | > 15.1 µM | 98.7% | 646 nM | 0.2% | > 15.1 µM | 101% | 245 nM | Cn1cnc2cc(N3C(=S)N(c4cnc(C#N)c(C(F)(F)F)c4)C(=O)C34CCC4)ccc21 [Cpd 244, 5-[8-(1-methylbenzimidazol-5-yl)-5-oxo-7-thioxo-6,8-diazaspiro[3.4]octan-6-yl]-3-(trifluoromethyl)pyridine-2-carbonitrile]
0.5% | > 15.1 µM | 99.3% | 479 nM | 0% | > 15.1 µM | 102% | 151 nM | Cc1nc2cc(N3C(=S)N(c4cnc(C#N)c(C(F)(F)F)c4)C(=O)C34CCC4)ccc2[nH]1 [Cpd 245, 5-[8-(2-methyl-1H-benzimidazol-5-yl)-5-oxo-7-thioxo-6,8-diazaspiro[3.4]octan-6-yl]-3-(trifluoromethyl)pyridine-2-carbonitrile]
0.2% | > 15.1 µM | 0% | 1120 nM | 0.1% | > 15.1 µM | 99.5% | 1150 nM | Cc1cc(N2C(=O)C3(CCC3)N(c3cnc(OC4CCNCC4)nc3)C2=S)cnc1C#N [Cpd 246, 3-methyl-5-[5-oxo-8-[2-(4-piperidyloxy)pyrimidin-5-yl]-7-thioxo-6,8-diazaspiro[3.4]octan-6-yl]pyridine-2-carbonitrile]
0.2% | > 15.1 µM | 0% | 1000 nM | -0.1% | > 15.1 µM | 99.4% | 1200 nM | Cc1cc(N2C(=O)C3(CCC3)N(c3cnc(OC4CCN(C)CC4)nc3)C2=S)cnc1C#N [Cpd 247, 3-Methyl-5-[8-[2-[(1-methyl-4-piperidyl)oxy]pyrimidin-5-yl]-5-oxo-7-thioxo-6,8-diazaspiro[3,4]octan-6-yl]pyridine-2-carbonitrile]
0.4% | > 15.1 µM | 0% | 417 nM | 0% | > 15.1 µM | 102% | 372 nM | N#Cc1ncc(N2C(=O)C3(CCC3)N(c3ccc4c(ccn4CCO)c3)C2=S)cc1C(F)(F)F [Cpd 248, 5-[8-[1-(2-hydroxyethyl)indol-5-yl]-5-oxo-7-thioxo-6,8-diazaspiro[3.4]octan-6-yl]-3-(trifluoromethyl)pyridine-2-carbonitrile]
0% | > 15.1 µM | 0% | 407 nM | 0% | > 15.1 µM | 103% | 316 nM | N#Cc1ncc(N2C(=O)C3(CCC3)N(c3ccc4c(ccn4C4CCNCC4)c3)C2=S)cc1C(F)(F)F [Cpd 249, 5-[8-Oxo-5-(1-piperidin-4-yl-1H-indol-5-yl)-6-thioxo-5,7-diaza-spiro[3.4]oct-7-yl]-3-trifluoromethyl-pyridine-2-carbonitrile]
0.1% | > 15.1 µM | 0% | 1170 nM | 0% | > 15.1 µM | 101% | 977 nM | N#Cc1ncc(N2C(=O)C3(CCC3)N(c3ccc4ccn(CCO)c4c3)C2=S)cc1C(F)(F)F [Cpd 250, 5-[8-[1-(2-hydroxyethyl)indol-6-yl]-5-oxo-7-thioxo-6,8-diazaspiro[3.4]octan-6-yl]-3-(trifluoromethyl)pyridine-2-carbonitrile]
0.1% | > 15.1 µM | 0% | 288 nM | -0.1% | > 15.1 µM | 101% | 174 nM | CN1CCC(n2ccc3cc(N4C(=S)N(c5cnc(C#N)c(C(F)(F)F)c5)C(=O)C45CCC5)ccc32)CC1 [Cpd 251, 5-[8-[1-(1-methyl-4-piperidyl)indol-5-yl]-5-oxo-7-thioxo-6,8-diazaspiro[3.4]octan-6-yl]-3-(trifluoromethyl)pyridine-2-carbonitrile]
-0.1% | > 15.1 µM | 0% | 407 nM | -0.1% | > 15.1 µM | 100% | 832 nM | N#Cc1ncc(N2C(=O)C3(CCC3)N(c3cnc(OC4CCN(CCO)CC4)nc3)C2=S)cc1C(F)(F)F [Cpd 252, 5-[8-[2-[[1-(2-hydroxyethyl)-4-piperidyl]oxy]pyrimidin-5-yl]-5-oxo-7-thioxo-6,8-diazaspiro[3.4]octan-6-yl]-3-(trifluoromethyl)pyridine-2-carbonitrile]
0.4% | > 15.1 µM | 0% | 891 nM | -0.1% | > 15.1 µM | 99.3% | 708 nM | Cc1cc(N2C(=O)C3(CCC3)N(c3cnc(OC4CCN(CCO)CC4)nc3)C2=S)cnc1C#N [Cpd 254, 5-[8-[2-[[1-(2-hydroxyethyl)-4-piperidyl]oxy]pyrimidin-5-yl]-5-oxo-7-thioxo-6,8-diazaspiro[3,4]octan-6-yl]-3-methyl-pyridine-2-carbonitrile]
0.1% | > 15.1 µM | 94.7% | 2510 nM | 0.4% | > 15.1 µM | 99% | 2750 nM | Cn1c(CCO)nc2cc(N3C(=S)N(c4cnc(C#N)c(C(F)(F)F)c4)C(=O)C34CCC4)ccc21 [Cpd 255, 5-[8-[2-(2-hydroxyethyl)-1-methyl-benzimidazol-5-yl]-5-oxo-7-thioxo-6,8-diazaspiro[3.4]octan-6-yl]-3-(trifluoromethyl)pyridine-2-carbonitrile]
0.6% | > 15.1 µM | 95.9% | 4790 nM | 0.4% | > 15.1 µM | 96.8% | 1350 nM | CN1CCC(c2nc3cc(N4C(=S)N(c5cnc(C#N)c(C(F)(F)F)c5)C(=O)C45CCC5)ccc3[nH]2)CC1 [Cpd 256, 5-[8-[2-(1-methyl-4-piperidyl)-1H-benzimidazol-5-yl]-5-oxo-7-thioxo-6,8-diazaspiro[3.4]octan-6-yl]-3-(trifluoromethyl)pyridine-2-carbonitrile]
